Test [1] deals with phosphorylated AKT Ser473 (pAKT S473), mTORC2 activity, PC3 cells. In words: mTOR target engagement assay, immunofluorescent cell-based, pAKT S473 readout (mTORC2 activity). The method in brief:
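After blocking, cells were stained overnight at 4 °C with anti-pAKT S473 antibody, then a fluorescent secondary; inhibition was read as reduced fluorescence intensity.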

Test [2] concerns phosphorylated 4E-BP1 Thr37/46 (p4E-BP1 Thr37/46), mTORC1 activity, PC3 cells. In words: mTOR target engagement assay, immunofluorescent cell-based, p4E-BP1 Thr37/46 readout (mTORC1 activity). To be noted: read-out: p4E-BP1 Thr37/46 IC50. The method in brief: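 PTEN-mutant PC3 prostate cells were treated with serially diluted compound in 5% FBS F12 medium (0.25% DMSO) for ninety minutes at 37° C, glyoxal-fixed, then immunostained overnight at 4° C for p4E-BP1 Thr37/46 with an Alexa Fluor 488 secondary. IC50 came from four-parameter fits of fluorescence, DMSO-only wells defining 100%.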

[3] abbreviates: Homo sapiens, PC-3, Table 3-1, PC3 cells.
[4] abbreviates: Homo sapiens, PC-3, PC3 cells, compound treatment ninety minutes at 37° C.
The mark [5] stands for this setting: Homo sapiens, PC-3, Table 6-1, PC3 cells.

Among the data in patent US9227971B2, “Pyrazolo[1,5-a]pyrimidine compounds as mTOR inhibitors” (Merck Sharp & Dohme Corp., priority 2010, dated 2016) are IC50 values, retold here.

Read-outs that look alike come from different tables or passages of the source. Bounds are passed on as bounds.

For `CS(=O)(=O)c1c([C@@H]2C[C@H]3CC[C@@H](C2)N3C(=O)NC2CC2)nc2c(-c3ccc(-c4ccccc4)nc3)cnn2c1N` [Compound 3.11, (1R,3s,5S)-3-(7-amino-6-(methylsulfonyl)-3-(6-phenylpyridin-3-yl)pyrazolo[1,5-a]pyrimidin-5-yl)-N-cyclopropyl-8-azabicyclo[3.2.1]octane-8-carboxamide], the IC50 in test [1] (setting [3]) is 100 to 1000 nM; in test [2] (setting [3]) it was 1000 to 10000 nM.
As to `Nc1c(C2CC2)c([C@@H]2C[C@H]3CC[C@@H](C2)N3C(=O)c2nnc[nH]2)nc2c(-c3ccc(-c4ccccc4)nc3)cnn12` [Compound 4.1, ((1R,3a,5S)-3-(7-amino-6-cyclopropyl-3-(6-phenylpyridin-3-yl)pyrazolo[1,5-a]pyrimidin-5-yl)-8-azabicyclo[3.2.1]octan-8-yl)(4H-1,2,4-triazol-3-yl)methanone], the IC50 in test [1] (setting [4]) and in test [2] (setting [4]) was 1 to 100 nM each time.
Take `CNC(=O)Nc1ccc(-c2cnn3c(N)c(C(C)=O)c([C@@H]4C[C@H]5CC[C@@H](C4)N5C(=O)c4nnc[nH]4)nc23)cc1` [Compound 8.85, 1-(4-(5-((1R,3s,5S)-8-(4H-1,2,4-triazole-3-carbonyl)-8-azabicyclo[3.2.1]octan-3-yl)-6-acetyl-7-aminopyrazolo[1,5-a]pyrimidin-3-yl)phenyl)-3-methylurea]: the IC50 in test [1] (Homo sapiens, PC-3, PC3 cells) was 1 to 100 nM; in test [2] (Homo sapiens, PC-3, PC3 cells), 100 to 1000 nM.
For `CS(=O)(=O)c1c([C@@H]2C[C@H]3CC[C@@H](C2)N3C(=O)c2nc(C(F)(F)F)n[nH]2)nc2c(-c3ccc(-c4ccccc4)nc3)cnn2c1N` [Compound 3.99, ((1R,3s,5S)-3-(7-amino-6-(methylsulfonyl)-3-(6-phenylpyridin-3-yl)pyrazolo[1,5-a]pyrimidin-5-yl)-8-azabicyclo[3.2.1]octan-8-yl)(3-(trifluoromethyl)-1H-1,2,4-triazol-5-yl)methanone], the IC50 in test [1] (setting [3]) and in test [2] (setting [3]) was 1000 to 10000 nM each time.
Turning to `CS(=O)(=O)c1c(C2CC3COCC(C2)N3C(=O)c2nc[nH]n2)nc2c(-c3ccc(-c4ccccc4)nc3)cnn2c1N` (centres unmarked) [Compound 8.29, (7-(7-amino-6-(methylsulfonyl)-3-(6-phenylpyridin-3-yl)pyrazolo[1,5-a]pyrimidin-5-yl)-3-oxa-9-azabicyclo[3.3.1]nonan-9-yl)(1H-1,2,4-triazol-3-yl)methanone], the IC50 is 1 to 100 nM in test [1] (Homo sapiens, PC-3, PC3 cells) and 1 to 100 nM in test [2] (Homo sapiens, PC-3, PC3 cells).
Consider `COCCNc1nnc(C(=O)N2[C@@H]3CC[C@H]2C[C@H](c2nc4c(-c5ccc(-c6ccccc6)nc5)cnn4c(N)c2C2CC2)C3)[nH]1` [Compound 4.31, ((1R,3s,5S)-3-(7-amino-6-cyclopropyl-3-(6-phenylpyridin-3-yl)pyrazolo[1,5-a]pyrimidin-5-yl)-8-azabicyclo[3.2.1]octan-8-yl)(5-(2-methoxyethylamino)-4H-1,2,4-triazol-3-yl)methanone], for which the IC50 in test [1] (setting [4]) and in test [2] (setting [4]) was 1000 to 10000 nM throughout.
`CONC(=O)N1C2CC[C@@H]1C[C@@H](c1nc3c(-c4ccc(-c5ccccc5)nc4)cnn3c(N)c1S(C)(=O)=O)C2` [Compound 3.171, (1R,3s,5S)-3-(7-amino-6-(methylsulfonyl)-3-(6-phenylpyridin-3-yl)pyrazolo[1,5-a]pyrimidin-5-yl)-N-methoxy-8-azabicyclo[3.2.1]octane-8-carboxamide]: the IC50 in test [1] (setting [3]) and in test [2] (setting [3]) was 100 to 1000 nM each time.
Turning to `CC(=O)c1c([C@@H]2C[C@H]3CC[C@@H](C2)N3C(=O)c2nnc(C)[nH]2)nc2c(-c3ccc(C(N)(C(F)(F)F)C(F)(F)F)nc3)cnn2c1N` [Compound 7.82, 1-(7-amino-3-(6-(2-amino-1,1,1,3,3,3-hexafluoropropan-2-yl)pyridin-3-yl)-5-((1R,3s,5S)-8-(5-methyl-4H-1,2,4-triazole-3-carbonyl)-8-azabicyclo[3.2.1]octan-3-yl)pyrazolo[1,5-a]pyrimidin-6-yl)ethanone], the IC50 in test [1] (Homo sapiens, PC-3, PC3 cells) was in the range of 1000 to 10000 nM; in test [2] (Homo sapiens, PC-3, PC3 cells) it was 1000 to 10000 nM.
As to `CC(=O)c1c([C@@H]2C[C@H]3CC[C@@H](C2)N3C(=O)CO)nc2c(-c3ccc(-c4nccs4)nc3)cnn2c1N` [Compound 1.1.33, 1-((1R,3s,5S)-3-(6-acetyl-7-amino-3-(6-(thiazol-2-yl)pyridin-3-yl)pyrazolo[1,5-a]pyrimidin-5-yl)-8-azabicyclo[3.2.1]octan-8-yl)-2-hydroxyethanone], the IC50 was in the range of 1 to 100 nM in test [1] (setting [4]) and 100 to 1000 nM in test [2] (setting [4]).
As for `CS(=O)(=O)c1c([C@@H]2C[C@H]3CC[C@@H](C2)N3C(=O)CO)nc2c(-c3ccc(-n4cccn4)nc3)cnn2c1N` [Compound 3.153, 1-((1R,3s,5S)-3-(3-(6-(1H-pyrazol-1-yl)pyridin-3-yl)-7-amino-6-(methylsulfonyl)pyrazolo[1,5-a]pyrimidin-5-yl)-8-azabicyclo[3.2.1]octan-8-yl)-2-hydroxyethanone], the IC50 in test [1] (setting [3]) was in the range of 100 to 1000 nM; in test [2] (setting [3]), 1000 to 10000 nM.
Taken in the same sequence, the figures for `Cc1n[nH]c(C(=O)N2[C@@H]3CC[C@H]2C[C@H](c2nc4c(-c5ccc(-c6ccccc6)nc5)cnn4c(N)c2S(C)(=O)=O)C3)n1` [Compound 3.4, ((1R,3s,5S)-3-(7-amino-6-(methylsulfonyl)-3-(6-phenylpyridin-3-yl)pyrazolo[1,5-a]pyrimidin-5-yl)-8-azabicyclo[3.2.1]octan-8-yl)(3-methyl-1H-1,2,4-triazol-5-yl)methanone] were 1 to 100 nM and 1 to 100 nM.
With `COc1cc(F)c(-c2ccc(-c3cnn4c(N)c(C(C)=O)c([C@@H]5C[C@H]6CC[C@@H](C5)N6C(=O)c5nnc[nH]5)nc34)cn2)cc1F` [Compound 1.1.72, 1-(5-((1R,3s,5S)-8-(4H-1,2,4-triazole-3-carbonyl)-8-azabicyclo[3.2.1]octan-3-yl)-7-amino-3-(6-(2,5-difluoro-4-methoxyphenyl)pyridin-3-yl)pyrazolo[1,5-a]pyrimidin-6-yl)ethanone], the IC50 in test [1] (setting [4]) and in test [2] (setting [4]) was 1 to 100 nM throughout.
As for `CC(=O)c1c([C@@H]2C[C@H]3CC(O)[C@@H](C2)N3C(=O)CO)nc2c(-c3ccc(-c4ccccc4)nc3)cnn2c1N` (stereo partly drawn) [Compound 8.35, 1-((1S,3R,5R)-3-(6-acetyl-7-amino-3-(6-phenylpyridin-3-yl)pyrazolo[1,5-a]pyrimidin-5-yl)-6-hydroxy-8-azabicyclo[3.2.1]octan-8-yl)-2-hydroxyethanone], the IC50 in test [1] (Homo sapiens, PC-3, PC3 cells) lay in the range of 1 to 100 nM; in test [2] (Homo sapiens, PC-3, PC3 cells) it was 1 to 100 nM.
Regarding `Nc1c(C2CC2)c([C@@H]2C[C@H]3CC[C@@H](C2)N3C(=O)CO)nc2c(-c3ccc(-c4ncc[nH]4)c(F)c3)cnn12` [Compound 6.37, 1-((1R,3s,5S)-3-(7-amino-6-cyclopropyl-3-(3-fluoro-4-(1H-imidazol-2-yl)phenyl)pyrazolo[1,5-a]pyrimidin-5-yl)-8-azabicyclo[3.2.1]octan-8-yl)-2-hydroxyethanone], the IC50 in test [1] (setting [5]) and in test [2] (setting [5]) was 1 to 100 nM throughout.
In the case of `N#Cc1c([C@@H]2C[C@H]3CC[C@@H](C2)N3C(=O)c2nc[nH]n2)nc2c(-c3ccc(-c4ccccc4)nc3)cnn2c1N` [Compound 5.2, 5-((1R,3s,5S)-8-(1H-1,2,4-triazole-3-carbonyl)-8-azabicyclo[3.2.1]octan-3-yl)-7-amino-3-(6-phenylpyridin-3-yl)pyrazolo[1,5-a]pyrimidine-6-carbonitrile], the IC50 in test [1] (setting [4]) and in test [2] (setting [4]) was 1 to 100 nM each time.
Turning to `CS(=O)(=O)c1c([C@@H]2C[C@H]3CC[C@@H](C2)N3C(=O)[C@H](O)CO)nc2c(-c3ccc(-c4ccccc4)nc3)cnn2c1N` [Compound 3.7, (R)-1-((1R,3S,5S)-3-(7-amino-6-(methylsulfonyl)-3-(6-phenylpyridin-3-yl)pyrazolo[1,5-a]pyrimidin-5-yl)-8-azabicyclo[3.2.1]octan-8-yl)-2,3-dihydroxypropan-1-one], the IC50 in test [1] (setting [3]) lay within 100 to 1000 nM; in test [2] (setting [3]), 1000 to 10000 nM.
`CC(=O)c1c([C@@H]2C[C@H]3CC[C@@H](C2)N3S(=O)(=O)O)nc2c(-c3ccc(-c4ccccc4)nc3)cnn2c1N` [Compound 1.1.49, (1R,3s,5S)-3-(6-acetyl-7-amino-3-(6-phenylpyridin-3-yl)pyrazolo[1,5-a]pyrimidin-5-yl)-8-azabicyclo[3.2.1]octane-8-sulfonic acid]: the values for the IC50 in test [1] (setting [4]) and in test [2] (setting [4]) were 1000 to 10000 nM and above 10000 nM, respectively.
On to `COc1ncc(-c2ccc(-c3cnn4c(N)c(S(C)(=O)=O)c([C@@H]5C[C@H]6CC[C@@H](C5)N6C(=O)c5nnc[nH]5)nc34)cn2)cn1` [Compound 3.58, ((1R,3s,5S)-3-(7-amino-3-(6-(2-methoxypyrimidin-5-yl)pyridin-3-yl)-6-(methylsulfonyl)pyrazolo[1,5-a]pyrimidin-5-yl)-8-azabicyclo[3.2.1]octan-8-yl)(4H-1,2,4-triazol-3-yl)methanone], for which the IC50 in test [1] (Table 3-1, PC3 cells) fell in the range of 1000 to 10000 nM; in test [2] (Table 3-1, PC3 cells) it was 1000 to 10000 nM.
In the case of `CS(=O)(=O)c1c([C@@H]2C[C@H]3CC[C@@H](C2)N3C(=O)c2nnc[nH]2)nc2c(-c3ccc(-c4ccc(OC5CC5)cc4)nc3)cnn2c1N` [Compound 3.61, ((1R,3s,5S)-3-(7-amino-3-(6-(4-cyclopropoxyphenyl)pyridin-3-yl)-6-(methylsulfonyl)pyrazolo[1,5-a]pyrimidin-5-yl)-8-azabicyclo[3.2.1]octan-8-yl)(4H-1,2,4-triazol-3-yl)methanone], the IC50 in test [1] (setting [3]) and in test [2] (setting [3]) was 100 to 1000 nM each time.
